Columns and labels:
[1] = tested on: MIP1α induced THP-1 migration; experiment: Trans-well THP-1 migration assay, MIP1α as chemoattractant; type: cell-based, human; conditions: Table 4(b); 100 μM peptide; n.s. = no statistically significant inhibition
Method: FIG. 1 is a schematic of the trans-well migration assay. In most experiments, the peptide (wavy line) is added to the upper well with about 50,000 cells (O). The upper and lower wells are separated by a 5 μm or 8 μm pore size PVP-free membrane (- - - -). Chemokine (●) is added to the lower well. After 4 hours, the number of cells that have migrated through the membrane are measured (◯ in lower well).
To determine whether an agent inhibits a chemokine-induced activity, such as macrophage recruitment, varying amounts of the agent are mixed with cells in the presence of a known chemoattractant. For example, a range of known concentrations of an agent, e.g., a chemokine peptide, is incubated with a defined number (e.g., 10^4-10^6) of human THP-1 monocyte cells in individual wells of the top compartment of a trans-well plate. […] A standard curve consisting of a two-fold dilution series of THP-1 cells (in 29 μl) is prepared to accurately quantify the number of cells that have migrated. […] Absorbance of converted dye is measured at a wavelength of 595 nm using an ELISA plate reader. The number of migrated cells in each well is then determined by interpolation of the standard curve (see also Imai et al., J. Biol. Chem., 272, 15036 (1997)). […]

[2] = tested on: T-tropic HIV isolate; experiment: HIV infection of Jurkat cells, reverse transcriptase assay of culture medium; type: cell-based; conditions: 100 μM peptide; 3 weeks in culture
Method: Peptides were added on day 0, one hour prior to infection of the cells with HIV isolate. The full length chemokine SDF-1α was used as a positive control.
(SEQ ID NO:1), or (iv) 100 ng/ml SDF-1, which should bind to and block all CXCR-4 receptors. After 3 weeks in culture, viral replication was assessed by a reverse transcriptase assay of the culture medium. Peptide 3(1-12)[MCP-1]
Since peptide 2(1-15)[MCP1] […] (SEQ ID NO:3) binds and inhibits an epitope used by HIV for cell entry but not by MCP-1 for signaling. To test this hypothesis, the same HIV infection assay described above was employed to test whether peptide 2(1-15)[MCP-1] (SEQ ID NO:3) inhibits HIV infection of Jurkat cells. At 100 μM, peptide 2(1-15)[MCP-1]

How did the “Extent of inhibition of THP-1 migration at 100 μM, MIP1α” value [1] turn out when EICADPKQKWVQ [Peptide 3] was run?
The value was 99%.

And the “inhibition of Jurkat cell infection by HIV” value [2]?
The value was “effective inhibitor”.

— patent publication US6989435B2, “Compounds and methods to inhibit or augment an inflammatory response” (Cambridge University Technical Services Ltd., priority 1997, dated 2006)
